Assay results from publication PMC8401948, “Improving the Solubility and Oral Bioavailability of a Novel Aromatic Aldehyde Antisickling Agent (PP10) for the Treatment of Sickle Cell Disease” (Pharmaceutics, 2021).
Values after ≈ are worked out from the molar mass of the structure shown.

Experiments:
[1] = molecular target: T1, HbS (Homo sapiens, UniProt P68871+P69905, E7V); assay: Hb modification (Hb adduct formation), cation-exchange HPLC; assay type: cell-based; settings: SS blood, 0.5, 1 and 2 mM
T1 construct: tested using homozygous sickle cell (SS) blood for their pharmacologic activities; from tissue; host or cells: Whole blood (red blood cells) from individuals with homozygous sickle cell disease
Method: (§1) The parent PP10, its acid metabolite PP10-acid, and the sodium salt PP10-NaSalt were tested using homozygous sickle cell (SS) blood for their pharmacologic activities. Leftover blood samples from individuals with SS were obtained (based on an approved IRB protocol at the Children’s Hospital of Philadelphia, with informed consent) and used for in vitro antisickling, Hb modification, and oxygen equilibrium studies following methods previously published by our group. For the antisickling study, SS blood samples (hematocrit 20%) were incubated under air in the absence or presence of PP10, PP10-acid, or PP10-NaSalt (0.5 mM, 1 mM, and 2 mM) at 37 °C for 1 h, followed by incubation of the mixture under hypoxic conditions (2.5% O2/97.5% N2) at 37 °C for 2 h. […]
(§2) Residual samples from the above study were washed in phosphate-buffered saline and hemolyzed by hypotonic lysis in deionized water for the oxygen equilibrium and Hb modification (Hb adduct formation) studies. […] The areas of new peaks, representing HbS adducts, were obtained, calculated as percentages of total Hb area, and reported as levels of modified Hb or Hb adduct. […] Degree of Hb O2 affinity shift (ΔP50) was expressed as percentage of control DMSO-treated samples.

[2] = design: method as in PMID 33205981; settings: in vitro, whole blood; cited from earlier work
[3] = tested on: sickle red blood cell (SS blood); assay: In vitro antisickling study with sickle whole blood; assay type: cell-based, human; settings: for antisickling effect (RBC sickling inhibition): SS blood HCT 20%, 0.5, 1 and 2 mM, hypoxia 2.5% O2
Method: The parent PP10, its acid metabolite PP10-acid, and the sodium salt PP10-NaSalt were tested using homozygous sickle cell (SS) blood for their pharmacologic activities. Leftover blood samples from individuals with SS were obtained (based on an approved IRB protocol at the Children’s Hospital of Philadelphia, with informed consent) and used for in vitro antisickling, Hb modification, and oxygen equilibrium studies following methods previously published by our group. For the antisickling study, SS blood samples (hematocrit 20%) were incubated under air in the absence or presence of PP10, PP10-acid, or PP10-NaSalt (0.5 mM, 1 mM, and 2 mM) at 37 °C for 1 h, followed by incubation of the mixture under hypoxic conditions (2.5% O2/97.5% N2) at 37 °C for 2 h. Aliquots were fixed with 2% glutaraldehyde solution in sodium cacodylate buffer, pH 7.4, without exposure to air, and then subjected to microscopic morphological analysis of bright field images (at 40× magnification) of single layer cells on an Olympus BX40 microscope fitted with an Infinity 2 camera and coupled with Image Capture cellSens software (Olympus, Tokyo, Japan).

[4] = Pharmacokinetics study in rats, whole blood PP10-acid; assay type: in vivo, Sprague-Dawley rats; settings: rat, all analyses
Method: A single-dose one-period parallel design was utilized to investigate the pharmacokinetics of pure PP10, the polymeric-PP10 binary systems with PVP-K90 and HP-β-CD, and the PP10-TPGS aqueous micelle solution formulation. The study was conducted according to the guidelines of Good Clinical Practice (GCP), the International Conference on Harmonization (ICH), and the European Medicines Agency (EMA). The protocol for the animal study received prior approval from the Research Ethics Committee, Faculty of Pharmacy, King Abdulaziz University, Saudi Arabia (reference no. PH-1442-68) in 04/03/2021.
Male Sprague-Dawley rats (300–350 g) were used. The animals were maintained on a 12 h light/dark cycle (lights-on at 7 a.m.) with free access to food and water in a temperature-controlled room. After 7 days of acclimatization, animals were classified into four groups (n = 6). Group I was administered oral drug tablets containing pure drug (positive control). Group II was given oral drug tablets containing PP10-PVP K90 binary system. […]
The concentration of the parent PP10 and PP10-acid metabolite in the whole blood samples were determined using a gradient elution HPLC chromatographic condition using a Waters Symmetry Shield C18 (Waters, MA, USA), 5 µm 3.9 × 150 mm column, and a Waters 2998 PDA detector (Waters, MA, USA) with detection wavelength adjusted to 274 nm. […]

[5] = Equilibrium aqueous solubility of PP10 and polymeric-PP10 binary systems; assay type: physicochemical; settings: distilled water, 25 °C
Method: The equilibrium solubility of pure PP10 and the three polymeric drug binary systems with PVP-K90, Eudragit L100-55, or HP-β-CD were studied to investigate the effect of the complexation on the aqueous solubility of PP10. An excess quantity of the pure drug or the prepared binary systems was added to 5 mL of distilled water in a screw-capped vial and transferred to a thermostatically controlled shaking water bath (Model 1031; GFL Corporation, Burgwedel, Germany) at 25 ± 0.5 °C for 72 h. […] Drug stock solution was prepared in methanol and different standard drug solutions in the range of 2–10 µg/mL were prepared. The absorbance of the prepared standard solutions was measured, resulting in a correlation coefficient (R^2) of 0.9986.

[6] = Stability of PP10 at different pHs (HPLC, MASS scan); assay type: physicochemical
Method: The parent PP10 could hydrolyze into the corresponding PP10-acid either chemically (acid/base hydrolysis) or by the action of esterase in the blood, which could affect the PK and/or PD properties. This potential hydrolysis behavior was studied by investigating the stability of the parent methylester compound in buffer at different pHs, and in blood. To examine potential chemical degradation, a solution of PP10 (2 mg/mL) was prepared in methanol. Known volume (1 mL) of this methanol solution was diluted with a definite volume (20 mL) of buffer at pH 1.2, 5.5, or 7.4, corresponding to the gastric pH, the pH of the proximal small intestine, and the pH of the terminal ileum or physiological body fluids, respectively. Methanolic drug solution of the same concentration was also prepared as a reference. The different pH mixtures were incubated in a water bath at 37 °C overnight. The high-performance liquid chromatography (HPLC) chromatogram of the parent compound (methanolic drug solution) was compared with the corresponding drug buffer samples. The molecular weight of degraded product(s) was investigated using MASS scan. Details of the apparatus and conditions are described below.

[7] = tested on: Hb; assay: Hb oxygen equilibrium study (Hemox Analyzer, P50 shift); assay type: cell-based, human; settings: 2 mM, SS blood
Method: as §1, §2

SMILES	Hb adduct formation [1]	parent PP10 hydrolyzed into the PP10-acid metabolite [2]	inhibition at 2000 µM ([3]; Homo sapiens, Erythrocyte, 2 mM, SS blood, read-out: RBC sickling inhibition more than PP10-acid) [%]	antisickling effect (RBC sickling inhibition) [3]	parent PP10 compound in whole blood after dosing [4]	solubility at 72 h [5] [µg/mL]	stability (hydrolysis to PP10-acid) ([6]; buffer pH 1.2, 37 °C overnight)	stability (hydrolysis to PP10-acid) ([6]; buffer pH 5.5, 37 °C overnight)	stability (hydrolysis to PP10-acid) ([6]; buffer pH 7.4, 37 °C overnight)	stability ([6]; straight methanol, 37 °C overnight)	increase of Hb oxygen affinity compared with the ester (PP10) [7]
COC(=O)c1cccc(COc2cccc(O)c2C=O)n1 [PP10, Methyl 6-((2-formyl-3-hydroxyphenoxy)methyl) picolinate]	highest Hb adduct formation	about 20%	36	dose-dependent antisickling effect	No parent PP10 compound (PP10) was observed in any of the analyses	12 ± 2 (≈ 41.8 µM)	most significant degradation	degrades into the acid form	degrades into the acid form	stable	–
O=Cc1c(O)cccc1OCc1cccc(C(=O)[O-])n1.[Na+] [PP10-NaSalt]	significantly less adduct formation	–	–	almost no activity	–	–	–	–	–	–	–
O=Cc1c(O)cccc1OCc1cccc(C(=O)O)n1 [PP10-acid]	–	–	–	dose-dependent antisickling effect	–	–	–	–	–	–	about 30%
